Assay results taken from PMC4710522, “A Novel Triazolopyridine-Based Spleen Tyrosine Kinase Inhibitor That Arrests Joint Inflammation” (PLoS ONE, 2016).
Where “and” joins values, the source holds several entries; their conditions need not be identical. Equal entries are not always repeated.

Experiments:
Test in all cases: SelectScreen kinase assay
Format in all cases: biochemical
cSRC-N1_h = target: T1, cSRC-N1_h (Homo sapiens, UniProt P12931); settings: KM ATP, read-out: % control
T1 construct: purchased Life Technologies (Invitrogen) SelectScreen, Z'-LYTE / Adapta
Experimental: (§1) Syk kinase mode of inhibition studies, including parameters described in Fig 1, were conducted on the LC3000 platform by Caliper Life Sciences (Hopkinton, MA) according to standard protocols developed by the supplier. […] Non-kinase enzyme assays and GPCR, ion channel, and transporter binding assays were run by CEREP (France). Non-GLP manual patch clamp hERG assays were run by ChanTest (Cleveland, Ohio). Vivid® Assay kits (Life Technologies) were used to measure the cytochrome P450 inhibition of the compound against CYP3A, CYP2C9, CYP2C19, CYP2D6, and CYP1A2, as described.
(§2) Kinase activity was measured using either the Z’-Lyte® or the Adapta® protocols as part of the SelectScreen™ profiling service offered at Life Technologies (Grand Island, NY). For the single point measurements (Part A), CC-509 was kept constant at 3 µM while ATP concentrations [ATP] used were at the KM for ATP (KM ATP) for that specific enyzme, at 10 or 100 µM ATP (10 ATP or 100 ATP, respectively), as indicated. Values expressed as percent control (% control) relative to DMSO-only wells (uninhibited, 100%).
(§3) Kinase activity was measured using either the Z’-Lyte® or the Adapta® protocols as part of the SelectScreen™ profiling service offered at Life Technologies (Grand Island, NY). […] Values expressed as percent control (% control) relative to DMSO-only wells (uninhibited, 100%).

Rse_h = target: T2, Rse_h (Homo sapiens, UniProt Q06418); settings: KM ATP, read-out: % control
T2 construct: purchased Life Technologies (Invitrogen) SelectScreen, Z'-LYTE / Adapta
Experimental: as §1, §2, §3

JAK3_h = JAK3_h (Homo sapiens, UniProt P52333)
Experimental: as §1, §2, §3

PKD3_h = target: T3, PKD3_h (Homo sapiens, UniProt O94806); settings: KM ATP, read-out: % control
T3 construct: purchased Life Technologies (Invitrogen) SelectScreen, Z'-LYTE / Adapta
Experimental: as §1, §2, §3

ROCK-II_h = target: T4, ROCK-II_h (Homo sapiens, UniProt O75116); settings: KM ATP, read-out: % control
T4 construct: purchased Life Technologies (Invitrogen) SelectScreen, Z'-LYTE / Adapta
Experimental: as §1, §2, §3

BRAF V599E = target: T5, BRAF V599E (Homo sapiens, UniProt P15056, V600E); settings: 100 µM ATP, read-out: % control
T5 construct: purchased Life Technologies (Invitrogen) SelectScreen, Z'-LYTE / Adapta
Experimental: as §1, §2, §3

PKD2_h = target: T6, PKD2_h (Homo sapiens, UniProt Q9BZL6); settings: KM ATP, read-out: % control
T6 construct: purchased Life Technologies (Invitrogen) SelectScreen, Z'-LYTE / Adapta
Experimental: as §1, §2, §3

PhK-gamma2_h = target: T7, PhK-gamma2_h (Homo sapiens, UniProt P15735); settings: KM ATP, read-out: % control
T7 construct: purchased Life Technologies (Invitrogen) SelectScreen, Z'-LYTE / Adapta
Experimental: as §1, §2, §3

LYN-B_h = target: T8, LYN-B_h (Homo sapiens, UniProt P07948); settings: KM ATP, read-out: % control
T8 construct: purchased Life Technologies (Invitrogen) SelectScreen, Z'-LYTE / Adapta
Experimental: as §1, §2, §3

Plk2_h = target: T9, Plk2_h (Homo sapiens, UniProt Q9NYY3); settings: KM ATP, read-out: % control
T9 construct: purchased Life Technologies (Invitrogen) SelectScreen, Z'-LYTE / Adapta
Experimental: as §1, §2, §3

Abl_Y253F_h = target: T10, Abl_Y253F_h (Homo sapiens, UniProt P00519, Y253F); settings: KM ATP, read-out: % control
T10 construct: purchased Life Technologies (Invitrogen) SelectScreen, Z'-LYTE / Adapta
Experimental: as §1, §2, §3

NEK6_h = target: T11, NEK6_h (Homo sapiens, UniProt Q9HC98); settings: KM ATP, read-out: % control
T11 construct: purchased Life Technologies (Invitrogen) SelectScreen, Z'-LYTE / Adapta
Experimental: as §1, §2, §3

SGK3_h = target: T12, SGK3_h (Homo sapiens, UniProt Q96BR1); settings: KM ATP, read-out: % control
T12 construct: purchased Life Technologies (Invitrogen) SelectScreen, Z'-LYTE / Adapta
Experimental: as §1, §2, §3

PDGFR-beta_h = target: T13, PDGFR-beta_h (Homo sapiens, UniProt P09619); settings: KM ATP, read-out: % control
T13 construct: purchased Life Technologies (Invitrogen) SelectScreen, Z'-LYTE / Adapta
Experimental: as §1, §2, §3

MST4_h = target: T14, MST4_h (Homo sapiens, UniProt Q9P289); settings: KM ATP, read-out: % control
T14 construct: purchased Life Technologies (Invitrogen) SelectScreen, Z'-LYTE / Adapta
Experimental: as §1, §2, §3

Rsk2_h = target: T15, Rsk2_h (Homo sapiens, UniProt P51812); settings: KM ATP, read-out: % control
T15 construct: purchased Life Technologies (Invitrogen) SelectScreen, Z'-LYTE / Adapta
Experimental: as §1, §2, §3

CK1-alpha1_h = target: T16, CK1-alpha1_h (Homo sapiens, UniProt P48729); settings: KM ATP, read-out: % control
T16 construct: purchased Life Technologies (Invitrogen) SelectScreen, Z'-LYTE / Adapta
Experimental: as §1, §2, §3

CHK1_h = target: T17, CHK1_h (Homo sapiens, UniProt O14757); settings: KM ATP, read-out: % control
T17 construct: purchased Life Technologies (Invitrogen) SelectScreen, Z'-LYTE / Adapta
Experimental: as §1, §2, §3

ALK_h = target: T18, ALK_h (Homo sapiens, UniProt Q9UM73); settings: KM ATP, read-out: % control
T18 construct: purchased Life Technologies (Invitrogen) SelectScreen, Z'-LYTE / Adapta
Experimental: as §1, §2, §3

p38-delta_h = target: T19, p38-delta_h (Homo sapiens, UniProt O15264); settings: KM ATP, read-out: % control
T19 construct: purchased Life Technologies (Invitrogen) SelectScreen, Z'-LYTE / Adapta
Experimental: as §1, §2, §3

JNK3_h = target: T20, JNK3_h (Homo sapiens, UniProt P53779); settings: 100 µM ATP, read-out: % control
T20 construct: purchased Life Technologies (Invitrogen) SelectScreen, Z'-LYTE / Adapta
Experimental: as §1, §2, §3

Yes_h = target: T21, Yes_h (Homo sapiens, UniProt P07947); settings: KM ATP, read-out: % control
T21 construct: purchased Life Technologies (Invitrogen) SelectScreen, Z'-LYTE / Adapta
Experimental: as §1, §2, §3

CDK2_cyclinA_h = target: T22, CDK2_cyclinA_h (Homo sapiens, UniProt P24941); settings: KM ATP, read-out: % control
T22 construct: purchased Life Technologies (Invitrogen) SelectScreen, Z'-LYTE / Adapta
Experimental: as §1, §2, §3

PKC-mu_h = target: T23, PKC-mu_h (Homo sapiens, UniProt Q15139); settings: KM ATP, read-out: % control
T23 construct: purchased Life Technologies (Invitrogen) SelectScreen, Z'-LYTE / Adapta
Experimental: as §1, §2, §3

Flt3_D835Y_h = target: T24, Flt3_D835Y_h (Homo sapiens, UniProt P36888, D835Y); settings: KM ATP, read-out: % control
T24 construct: purchased Life Technologies (Invitrogen) SelectScreen, Z'-LYTE / Adapta
Experimental: as §1, §2, §3

MKK6_h = target: T25, MKK6_h (Homo sapiens, UniProt P52564); settings: 100 µM ATP, read-out: % control
T25 construct: purchased Life Technologies (Invitrogen) SelectScreen, Z'-LYTE / Adapta
Experimental: as §1, §2, §3

BrSK1_h = target: T26, BrSK1_h (Homo sapiens, UniProt Q8TDC3); settings: KM ATP, read-out: % control
T26 construct: purchased Life Technologies (Invitrogen) SelectScreen, Z'-LYTE / Adapta
Experimental: as §1, §2, §3

MATK_h = target: T27, MATK_h (Homo sapiens, UniProt P42679); settings: KM ATP, read-out: % control
T27 construct: purchased Life Technologies (Invitrogen) SelectScreen, Z'-LYTE / Adapta
Experimental: as §1, §2, §3

CHK2_h = target: T28, CHK2_h (Homo sapiens, UniProt O96017); settings: KM ATP, read-out: % control
T28 construct: purchased Life Technologies (Invitrogen) SelectScreen, Z'-LYTE / Adapta
Experimental: as §1, §2, §3

FGFR3_h = target: T29, FGFR3_h (Homo sapiens, UniProt P22607); settings: KM ATP, read-out: % control
T29 construct: purchased Life Technologies (Invitrogen) SelectScreen, Z'-LYTE / Adapta
Experimental: as §1, §2, §3

CAMK1_h = target: T30, CAMK1_h (Homo sapiens, UniProt Q14012); settings: 10 µM ATP, read-out: % control
T30 construct: purchased Life Technologies (Invitrogen) SelectScreen, Z'-LYTE / Adapta
Experimental: as §1, §2, §3

MARK1_h = target: T31, MARK1_h (Homo sapiens, UniProt Q9P0L2); settings: KM ATP, read-out: % control
T31 construct: purchased Life Technologies (Invitrogen) SelectScreen, Z'-LYTE / Adapta
Experimental: as §1, §2, §3

PDGFR-alpha_h = PDGFR-alpha_h (Homo sapiens, UniProt P16234)
Experimental: as §1, §2, §3

[1] = 3 µM, KM ATP, read-out: % control
[2] = 10-point dose-response, commercial vendor

Chain of JAK3_h (P52333 whole entry): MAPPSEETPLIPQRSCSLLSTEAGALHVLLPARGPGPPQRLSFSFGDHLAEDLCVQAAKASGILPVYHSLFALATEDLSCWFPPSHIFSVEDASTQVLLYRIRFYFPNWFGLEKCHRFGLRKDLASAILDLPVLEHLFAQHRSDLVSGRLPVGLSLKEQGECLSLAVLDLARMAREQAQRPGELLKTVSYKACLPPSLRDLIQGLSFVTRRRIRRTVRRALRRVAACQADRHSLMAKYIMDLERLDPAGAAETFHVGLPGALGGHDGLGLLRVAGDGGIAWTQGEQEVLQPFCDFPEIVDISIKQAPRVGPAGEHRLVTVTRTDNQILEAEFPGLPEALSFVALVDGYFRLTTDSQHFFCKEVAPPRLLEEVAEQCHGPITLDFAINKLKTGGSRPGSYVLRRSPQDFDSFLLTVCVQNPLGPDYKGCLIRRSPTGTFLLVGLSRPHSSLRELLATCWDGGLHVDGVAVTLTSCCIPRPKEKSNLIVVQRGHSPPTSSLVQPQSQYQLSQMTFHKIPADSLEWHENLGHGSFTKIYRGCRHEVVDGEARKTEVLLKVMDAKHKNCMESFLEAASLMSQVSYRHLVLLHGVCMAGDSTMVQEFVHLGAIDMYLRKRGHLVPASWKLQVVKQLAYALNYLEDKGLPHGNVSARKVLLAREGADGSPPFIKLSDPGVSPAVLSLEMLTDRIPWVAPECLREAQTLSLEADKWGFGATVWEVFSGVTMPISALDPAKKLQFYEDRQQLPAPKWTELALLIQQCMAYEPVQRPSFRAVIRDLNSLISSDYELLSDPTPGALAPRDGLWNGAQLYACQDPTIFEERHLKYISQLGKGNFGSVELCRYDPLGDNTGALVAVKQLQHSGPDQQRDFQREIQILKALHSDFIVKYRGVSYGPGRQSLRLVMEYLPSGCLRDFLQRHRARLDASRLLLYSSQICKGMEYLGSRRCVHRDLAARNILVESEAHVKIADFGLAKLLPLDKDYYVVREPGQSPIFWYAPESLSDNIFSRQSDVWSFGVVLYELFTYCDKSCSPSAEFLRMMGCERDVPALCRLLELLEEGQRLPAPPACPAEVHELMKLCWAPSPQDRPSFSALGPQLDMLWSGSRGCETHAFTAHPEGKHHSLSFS
Chain of PDGFR-alpha_h (P16234 24-1089): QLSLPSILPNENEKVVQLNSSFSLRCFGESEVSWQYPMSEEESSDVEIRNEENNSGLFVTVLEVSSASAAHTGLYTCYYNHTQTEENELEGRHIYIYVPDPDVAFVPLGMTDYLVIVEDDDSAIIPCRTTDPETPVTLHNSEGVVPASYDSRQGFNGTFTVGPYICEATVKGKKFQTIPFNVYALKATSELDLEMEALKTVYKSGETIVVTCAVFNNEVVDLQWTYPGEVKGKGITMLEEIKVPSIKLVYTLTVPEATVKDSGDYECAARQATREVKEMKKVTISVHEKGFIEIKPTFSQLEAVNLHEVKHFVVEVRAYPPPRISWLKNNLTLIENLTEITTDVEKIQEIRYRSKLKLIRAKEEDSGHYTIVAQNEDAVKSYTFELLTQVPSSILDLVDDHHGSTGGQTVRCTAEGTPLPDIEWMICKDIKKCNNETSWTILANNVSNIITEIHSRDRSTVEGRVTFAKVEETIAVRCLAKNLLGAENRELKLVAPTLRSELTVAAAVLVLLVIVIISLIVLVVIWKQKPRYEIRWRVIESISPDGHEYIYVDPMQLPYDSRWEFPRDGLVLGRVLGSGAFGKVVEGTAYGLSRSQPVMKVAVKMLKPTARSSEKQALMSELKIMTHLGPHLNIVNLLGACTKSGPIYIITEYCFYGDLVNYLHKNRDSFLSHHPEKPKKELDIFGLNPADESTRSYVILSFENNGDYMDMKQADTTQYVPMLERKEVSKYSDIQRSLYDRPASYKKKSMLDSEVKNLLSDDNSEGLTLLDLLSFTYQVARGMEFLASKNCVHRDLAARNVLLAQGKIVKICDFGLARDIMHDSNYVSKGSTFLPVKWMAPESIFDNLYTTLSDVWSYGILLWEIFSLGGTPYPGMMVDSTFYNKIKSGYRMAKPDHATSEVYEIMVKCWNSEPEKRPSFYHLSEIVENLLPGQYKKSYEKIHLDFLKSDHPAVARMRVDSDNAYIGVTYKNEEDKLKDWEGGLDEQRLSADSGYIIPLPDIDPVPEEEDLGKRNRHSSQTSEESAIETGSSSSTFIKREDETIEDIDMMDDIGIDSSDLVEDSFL
T9 sequence (Q9NYY3 whole entry): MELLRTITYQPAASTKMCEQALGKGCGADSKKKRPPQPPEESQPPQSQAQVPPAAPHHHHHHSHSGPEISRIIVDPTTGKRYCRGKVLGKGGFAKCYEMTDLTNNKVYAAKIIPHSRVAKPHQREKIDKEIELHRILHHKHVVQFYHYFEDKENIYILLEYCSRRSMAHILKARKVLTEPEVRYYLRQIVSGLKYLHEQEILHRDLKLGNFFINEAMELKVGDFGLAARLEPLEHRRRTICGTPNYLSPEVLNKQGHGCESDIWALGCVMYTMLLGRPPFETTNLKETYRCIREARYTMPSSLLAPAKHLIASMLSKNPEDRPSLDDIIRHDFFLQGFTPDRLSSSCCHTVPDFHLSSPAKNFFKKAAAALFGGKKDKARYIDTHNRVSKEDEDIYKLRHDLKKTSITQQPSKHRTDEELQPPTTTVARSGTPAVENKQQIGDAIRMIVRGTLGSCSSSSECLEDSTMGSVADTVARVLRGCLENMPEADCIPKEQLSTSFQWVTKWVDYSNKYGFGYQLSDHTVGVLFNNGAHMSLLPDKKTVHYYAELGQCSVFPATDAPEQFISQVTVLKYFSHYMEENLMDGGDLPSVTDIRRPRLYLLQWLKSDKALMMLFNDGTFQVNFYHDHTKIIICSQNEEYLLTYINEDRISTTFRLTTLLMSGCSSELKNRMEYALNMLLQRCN
T21 sequence (P07947 whole entry): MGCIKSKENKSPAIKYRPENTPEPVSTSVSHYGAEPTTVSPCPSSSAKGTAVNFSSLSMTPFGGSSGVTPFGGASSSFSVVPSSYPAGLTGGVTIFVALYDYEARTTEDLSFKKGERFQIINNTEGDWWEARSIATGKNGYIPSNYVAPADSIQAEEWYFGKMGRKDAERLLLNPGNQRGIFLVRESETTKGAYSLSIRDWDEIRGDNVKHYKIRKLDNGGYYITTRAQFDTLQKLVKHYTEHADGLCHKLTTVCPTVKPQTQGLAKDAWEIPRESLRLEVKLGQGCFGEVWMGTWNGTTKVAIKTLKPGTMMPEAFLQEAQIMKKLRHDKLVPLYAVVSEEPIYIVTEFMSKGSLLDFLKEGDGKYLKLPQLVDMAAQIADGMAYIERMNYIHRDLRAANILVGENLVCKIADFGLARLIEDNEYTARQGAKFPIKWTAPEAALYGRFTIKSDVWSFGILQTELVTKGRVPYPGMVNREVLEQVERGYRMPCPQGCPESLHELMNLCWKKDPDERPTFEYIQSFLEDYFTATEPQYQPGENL
T20 sequence (P53779 whole entry): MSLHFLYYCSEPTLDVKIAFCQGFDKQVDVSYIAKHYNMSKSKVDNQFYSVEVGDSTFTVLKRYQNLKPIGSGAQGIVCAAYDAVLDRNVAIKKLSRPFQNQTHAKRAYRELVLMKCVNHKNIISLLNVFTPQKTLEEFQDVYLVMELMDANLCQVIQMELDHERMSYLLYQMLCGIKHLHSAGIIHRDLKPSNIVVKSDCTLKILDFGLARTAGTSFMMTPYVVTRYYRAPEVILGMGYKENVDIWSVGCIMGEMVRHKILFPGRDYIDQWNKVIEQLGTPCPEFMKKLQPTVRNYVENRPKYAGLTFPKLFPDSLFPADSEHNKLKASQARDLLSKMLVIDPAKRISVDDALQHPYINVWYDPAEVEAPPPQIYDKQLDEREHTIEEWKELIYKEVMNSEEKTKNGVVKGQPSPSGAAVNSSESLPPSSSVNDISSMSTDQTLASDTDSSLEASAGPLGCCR
T26 sequence (Q8TDC3 whole entry): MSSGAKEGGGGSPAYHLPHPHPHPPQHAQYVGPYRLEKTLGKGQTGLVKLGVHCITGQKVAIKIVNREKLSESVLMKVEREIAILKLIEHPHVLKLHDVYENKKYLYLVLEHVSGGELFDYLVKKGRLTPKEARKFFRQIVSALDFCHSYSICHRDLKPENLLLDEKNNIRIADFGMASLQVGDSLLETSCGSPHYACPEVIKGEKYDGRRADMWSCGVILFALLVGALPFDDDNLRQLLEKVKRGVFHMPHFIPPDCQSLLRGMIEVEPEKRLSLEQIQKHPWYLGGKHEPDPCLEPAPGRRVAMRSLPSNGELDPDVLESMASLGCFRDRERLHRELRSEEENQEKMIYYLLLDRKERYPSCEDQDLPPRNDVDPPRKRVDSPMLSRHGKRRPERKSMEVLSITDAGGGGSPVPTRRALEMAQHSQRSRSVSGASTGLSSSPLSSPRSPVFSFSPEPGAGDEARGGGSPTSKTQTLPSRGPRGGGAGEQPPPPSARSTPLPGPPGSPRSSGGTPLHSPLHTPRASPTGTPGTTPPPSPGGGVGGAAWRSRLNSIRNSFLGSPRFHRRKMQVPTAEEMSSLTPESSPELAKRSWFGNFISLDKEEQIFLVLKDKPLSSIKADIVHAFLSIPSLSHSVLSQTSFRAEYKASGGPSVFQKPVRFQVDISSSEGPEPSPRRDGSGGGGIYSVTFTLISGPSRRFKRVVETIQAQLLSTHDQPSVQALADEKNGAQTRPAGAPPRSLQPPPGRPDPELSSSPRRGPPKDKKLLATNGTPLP
T19 sequence (O15264 whole entry): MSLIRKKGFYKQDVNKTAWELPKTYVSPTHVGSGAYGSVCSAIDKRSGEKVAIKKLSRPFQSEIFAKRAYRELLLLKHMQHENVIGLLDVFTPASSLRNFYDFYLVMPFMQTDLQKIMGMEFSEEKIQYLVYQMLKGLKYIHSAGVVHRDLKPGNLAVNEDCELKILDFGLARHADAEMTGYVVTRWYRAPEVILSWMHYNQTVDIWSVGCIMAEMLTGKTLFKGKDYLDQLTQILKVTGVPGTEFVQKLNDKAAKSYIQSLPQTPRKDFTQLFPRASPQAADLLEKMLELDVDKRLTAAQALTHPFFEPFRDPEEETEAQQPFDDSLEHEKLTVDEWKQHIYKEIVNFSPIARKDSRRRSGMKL

Structure (SMILES): c1cc(CC2CCOCC2)n2nc(Nc3ccc4c(NC5CCOCC5)n[nH]c4c3)nc2c1 [CC-509, [3-(2H-3,4,5,6-tetrahydropyran-4-ylamino)(1H-indazol-6-yl)][5-(2H-3,4,5,6-tetrahydropyran-4-ylmethyl)(2H-1,2,4-triazolo[1,5-a]pyridin-2-yl)]amine]
- remaining activity at 3 µM (cSRC-N1_h): 58%
- remaining activity at 3 µM (Rse_h): 53%
- remaining activity at 3 µM (JAK3_h; [1]): 5%
- IC50 (JAK3_h; [2]): 20 nM and 18 nM
- remaining activity at 3 µM (PKD3_h): 37%
- remaining activity at 3 µM (ROCK-II_h): 69%
- remaining activity at 3 µM (BRAF V599E): 88%
- remaining activity at 3 µM (PKD2_h): 52%
- remaining activity at 3 µM (PhK-gamma2_h): 103%
- remaining activity at 3 µM (LYN-B_h): 39%
- remaining activity at 3 µM (Plk2_h): 96%
- remaining activity at 3 µM (Abl_Y253F_h): 22%
- remaining activity at 3 µM (NEK6_h): 99%
- remaining activity at 3 µM (SGK3_h): 87%
- remaining activity at 3 µM (PDGFR-beta_h): 43%
- remaining activity at 3 µM (MST4_h): 99%
- remaining activity at 3 µM (Rsk2_h): 49%
- remaining activity at 3 µM (CK1-alpha1_h): 88%
- remaining activity at 3 µM (CHK1_h): 94%
- remaining activity at 3 µM (ALK_h): 45%
- remaining activity at 3 µM (p38-delta_h): 82%
- remaining activity at 3 µM (JNK3_h): 94%
- remaining activity at 3 µM (Yes_h): 54%
- remaining activity at 3 µM (CDK2_cyclinA_h): 64%
- remaining activity at 3 µM (PKC-mu_h): 34%
- remaining activity at 3 µM (Flt3_D835Y_h): -1%
- remaining activity at 3 µM (MKK6_h): 101%
- remaining activity at 3 µM (BrSK1_h): 65%
- remaining activity at 3 µM (MATK_h): 102%
- remaining activity at 3 µM (CHK2_h): 97%
- remaining activity at 3 µM (FGFR3_h): 68%
- remaining activity at 3 µM (CAMK1_h): 86%
- remaining activity at 3 µM (MARK1_h): 48%
- remaining activity at 3 µM (PDGFR-alpha_h; [1]): 4%
- IC50 (PDGFR-alpha_h; [2]): 204 nM
